Assays:
Test in all cases: KiNativ profiling in human PBMCs
Type in all cases: binding
[1] = system: T1, RSK1 domain2; conditions: Lys2
T1 construct: RSK1 domain2; purchased ActivX Technologies (KiNativ)
Procedure: (§1) Compounds were shipped to ActivX Technologies (San Diego, US) where LRRK2 target engagement and broad kinase profiling was performed using KiNativ™ procedures. Live cell treatment of human peripheral blood mononuclear cells (PBMCs) at two compound concentrations (1 µM and 0.1 µM) were used to evaluate and compare in vitro target engagement and kinase selectivity, respectively (see Supplementary File 1).

[2] = system: RSK1,RSK2,RSK3 domain1; conditions: Lys2
Procedure: as §1

[3] = system: T2, LOK
T2 construct: purchased ActivX Technologies (KiNativ)
Procedure: as §1

[4] = system: T3, PLK1; conditions: Lys1
T3 construct: purchased ActivX Technologies (KiNativ)
Procedure: as §1

[5] = system: T4, PIK3CD; conditions: ATP
T4 construct: purchased ActivX Technologies (KiNativ)
Procedure: as §1

[6] = system: T5, MAP3K4; conditions: Lys2
T5 construct: purchased ActivX Technologies (KiNativ)
Procedure: as §1

[7] = system: T6, IRAK4
T6 construct: purchased ActivX Technologies (KiNativ)
Procedure: as §1

[8] = system: T7, PRP4
T7 construct: purchased ActivX Technologies (KiNativ)
Procedure: as §1

[9] = system: T8, NEK1; conditions: Lys2
T8 construct: purchased ActivX Technologies (KiNativ)
Procedure: as §1

[10] = system: T9, LATS2
T9 construct: purchased ActivX Technologies (KiNativ)
Procedure: as §1

[11] = system: T10, ARAF; conditions: Lys2
T10 construct: purchased ActivX Technologies (KiNativ)
Procedure: as §1

[12] = system: T11, KSR1; conditions: Activation Loop
T11 construct: purchased ActivX Technologies (KiNativ)
Procedure: as §1

[13] = system: T12, FRAP; conditions: 0.1µM; ATP
T12 construct: purchased ActivX Technologies (KiNativ)
Procedure: as §1

[14] = system: T13, JAK1 domain2
T13 construct: JAK1 domain2; purchased ActivX Technologies (KiNativ)
Procedure: as §1

[15] = system: T14, MARK2; conditions: Lys1
T14 construct: purchased ActivX Technologies (KiNativ)
Procedure: as §1

[16] = system: T15, PIK3CB; conditions: ATP
T15 construct: purchased ActivX Technologies (KiNativ)
Procedure: as §1

[17] = system: T16, NEK8; conditions: Lys2
T16 construct: purchased ActivX Technologies (KiNativ)
Procedure: as §1

[18] = system: T17, CSK
T17 construct: purchased ActivX Technologies (KiNativ)
Procedure: as §1

[19] = system: T18, ZAP70
T18 construct: purchased ActivX Technologies (KiNativ)
Procedure: as §1

[20] = system: T19, GPRK6; conditions: Lys2
T19 construct: purchased ActivX Technologies (KiNativ)
Procedure: as §1

[21] = system: KSR1,KSR2; conditions: Activation Loop
Procedure: as §1

[22] = system: T20, RSK2 domain2; conditions: Lys2
T20 construct: RSK2 domain2; purchased ActivX Technologies (KiNativ)
Procedure: as §1

[23] = system: T21, TBK1; conditions: Lys1
T21 construct: purchased ActivX Technologies (KiNativ)
Procedure: as §1

[24] = system: T22, JAK3 domain2
T22 construct: JAK3 domain2; purchased ActivX Technologies (KiNativ)
Procedure: as §1

[25] = system: T23, CHK2
T23 construct: purchased ActivX Technologies (KiNativ)
Procedure: as §1

[26] = system: T24, RSK1 domain1
T24 construct: RSK1 domain1; purchased ActivX Technologies (KiNativ)
Procedure: as §1

[27] = system: T25, IKKb
T25 construct: purchased ActivX Technologies (KiNativ)
Procedure: as §1

[28] = system: T26, NuaK2; conditions: Lys1
T26 construct: purchased ActivX Technologies (KiNativ)
Procedure: as §1

[29] = system: MST4,YSK1; conditions: Lys2
Procedure: as §1

[30] = system: T27, BARK1; conditions: Lys2
T27 construct: purchased ActivX Technologies (KiNativ)
Procedure: as §1

[31] = system: T28, PAN3; conditions: ATP
T28 construct: purchased ActivX Technologies (KiNativ)
Procedure: as §1

[32] = system: T29, GSK3A; conditions: Lys2
T29 construct: purchased ActivX Technologies (KiNativ)
Procedure: as §1

[33] = system: T30, PYK2
T30 construct: purchased ActivX Technologies (KiNativ)
Procedure: as §1

[34] = system: T31, PIK3CG; conditions: ATP
T31 construct: purchased ActivX Technologies (KiNativ)
Procedure: as §1

[35] = system: T32, STLK3; conditions: Lys2
T32 construct: purchased ActivX Technologies (KiNativ)
Procedure: as §1

For `Cn1cc(-c2c[nH]c3ncnc(N4CCOCC4)c23)cc1C#N` [PFE-360], the “% Inhibition” value ([1]; 0.1µM) was -5.4%, the “% Inhibition” value ([1]; 1µM) was -11.2% and the “% Inhibition” value ([2]; 0.1µM) was 14.5%. For the same compound, the “% Inhibition” value ([2]; 1µM) was 16.3%, the “% Inhibition” value ([3]; 0.1µM, ATP Loop) was 26.9% and the “% Inhibition” value ([3]; 0.1µM, Lys1) was 5.3%. The “% Inhibition” value ([3]; 0.1µM, Lys2) was -2.3%, the “% Inhibition” value ([3]; 1µM, ATP Loop) was 29.8% and the “% Inhibition” value ([3]; 1µM, Lys1) was 39.7%. For the same compound, the “% Inhibition” value ([3]; 1µM, Lys2) was 22.4%, the “% Inhibition” value ([4]; 0.1µM) was -4.1% and the “% Inhibition” value ([4]; 1µM) was -6.7%. The “% Inhibition” value ([5]; 0.1µM, peptide TKVNWLAHNVSKDNRQ) was -9.3%, the “% Inhibition” value ([5]; 0.1µM, peptide VNWLAHNVSKDNRQ) was 0.5% and the “% Inhibition” value ([5]; 1µM, peptide TKVNWLAHNVSKDNRQ) was -11.6%. The “% Inhibition” value ([5]; 1µM, peptide VNWLAHNVSKDNRQ) was 1.4%, the “% Inhibition” value ([6]; 0.1µM) was -0.3% and the “% Inhibition” value ([6]; 1µM) was -7.3%. For the same compound, the “% Inhibition” value ([7]; 0.1µM, Lys1) was 4.1%, the “% Inhibition” value ([7]; 0.1µM, Lys2) was 8% and the “% Inhibition” value ([7]; 1µM, Lys1) was -0.3%. For the same compound, the “% Inhibition” value ([7]; 1µM, Lys2) was 1.4%, the “% Inhibition” value ([8]; 0.1µM, Lys2) was -12.1% and the “% Inhibition” value ([8]; 0.1µM, Protein Kinase Domain) was -9.2%. The “% Inhibition” value ([8]; 1µM, Lys2) was -13.6%, the “% Inhibition” value ([8]; 1µM, Protein Kinase Domain) was -18% and the “% Inhibition” value ([9]; 0.1µM) was 5.9%. The “% Inhibition” value ([9]; 1µM) was 2.6%, the “% Inhibition” value ([10]; 0.1µM, Lys1) was -10.2% and the “% Inhibition” value ([10]; 0.1µM, Lys2) was 5.5%. The “% Inhibition” value ([10]; 1µM, Lys1) was 16.6%, the “% Inhibition” value ([10]; 1µM, Lys2) was -0.4% and the “% Inhibition” value ([11]; 0.1µM) was 7.6%. The “% Inhibition” value ([11]; 1µM) was 2.5%, the “% Inhibition” value ([12]; 0.1µM) was 6.8% and the “% Inhibition” value ([12]; 1µM) was 8.2%. The “% Inhibition” value [13] was -1.2%, the “% Inhibition” value ([14]; 0.1µM, Activation Loop) was -1.9% and the “% Inhibition” value ([14]; 0.1µM, Lys1) was 0%. The “% Inhibition” value ([14]; 1µM, Activation Loop) was -10.1%, the “% Inhibition” value ([14]; 1µM, Lys1) was -13.8% and the “% Inhibition” value ([15]; 0.1µM) was -8.9%. The “% Inhibition” value ([15]; 1µM) was 2.3%, the “% Inhibition” value ([16]; 0.1µM) was -27.2% and the “% Inhibition” value ([16]; 1µM) was 12.3%. For the same compound, the “% Inhibition” value ([17]; 0.1µM) was -1.8%, the “% Inhibition” value ([17]; 1µM) was -12.1% and the “% Inhibition” value ([18]; 0.1µM, Activation Loop) was -3.4%. The “% Inhibition” value ([18]; 0.1µM, Lys1) was 0.7%, the “% Inhibition” value ([18]; 1µM, Activation Loop) was -10.5% and the “% Inhibition” value ([18]; 1µM, Lys1) was -10.4%. For the same compound, the “% Inhibition” value ([19]; 0.1µM, Activation Loop) was -0.7%, the “% Inhibition” value ([19]; 0.1µM, Lys1) was 0.4% and the “% Inhibition” value ([19]; 1µM, Activation Loop) was -9.8%. For the same compound, the “% Inhibition” value ([19]; 1µM, Lys1) was -5.9%, the “% Inhibition” value ([20]; 0.1µM) was 5.7% and the “% Inhibition” value ([20]; 1µM) was 0.4%. For the same compound, the “% Inhibition” value ([21]; 0.1µM) was 19.7%, the “% Inhibition” value ([21]; 1µM) was 10.8% and the “% Inhibition” value ([22]; 0.1µM) was -7.4%. For the same compound, the “% Inhibition” value ([22]; 1µM) was -13.8%, the “% Inhibition” value ([23]; 0.1µM) was -29% and the “% Inhibition” value ([23]; 1µM) was 2.1%. The “% Inhibition” value ([24]; 0.1µM, Activation Loop) was 6.4%, the “% Inhibition” value ([24]; 0.1µM, Lys1) was 2.6% and the “% Inhibition” value ([24]; 1µM, Activation Loop) was 7.7%. The “% Inhibition” value ([24]; 1µM, Lys1) was -7.6%, the “% Inhibition” value ([25]; 0.1µM, Lys1) was 3.6% and the “% Inhibition” value ([25]; 0.1µM, Lys2) was -6.7%. For the same compound, the “% Inhibition” value ([25]; 1µM, Lys1) was -2.7%, the “% Inhibition” value ([25]; 1µM, Lys2) was -12.6% and the “% Inhibition” value ([26]; 0.1µM, Activation Loop) was 4.6%. The “% Inhibition” value ([26]; 0.1µM, Lys1) was -11.3%, the “% Inhibition” value ([26]; 0.1µM, Lys2) was -4.4% and the “% Inhibition” value ([26]; 1µM, Activation Loop) was 1.1%. The “% Inhibition” value ([26]; 1µM, Lys1) was 3.4%, the “% Inhibition” value ([26]; 1µM, Lys2) was 10.9% and the “% Inhibition” value ([27]; 0.1µM, Lys1) was -5%. The “% Inhibition” value ([27]; 0.1µM, Lys2) was -6%, the “% Inhibition” value ([27]; 1µM, Lys1) was -10.5% and the “% Inhibition” value ([27]; 1µM, Lys2) was -31.2%. For the same compound, the “% Inhibition” value ([28]; 0.1µM) was 14.4%, the “% Inhibition” value ([28]; 1µM) was 4.6% and the “% Inhibition” value ([29]; 0.1µM) was -0.2%. The “% Inhibition” value ([29]; 1µM) was -16.6%, the “% Inhibition” value ([30]; 0.1µM) was -4.8% and the “% Inhibition” value ([30]; 1µM) was -29.7%. For the same compound, the “% Inhibition” value ([31]; 0.1µM) was -22.1%, the “% Inhibition” value ([31]; 1µM) was 10.4% and the “% Inhibition” value ([32]; 0.1µM) was 10.6%. For the same compound, the “% Inhibition” value ([32]; 1µM) was 19.8%, the “% Inhibition” value ([33]; 0.1µM, Activation Loop) was 8.4% and the “% Inhibition” value ([33]; 0.1µM, Lys1) was 29.3%. For the same compound, the “% Inhibition” value ([33]; 1µM, Activation Loop) was 7.1%, the “% Inhibition” value ([33]; 1µM, Lys1) was -2.2% and the “% Inhibition” value ([34]; 0.1µM) was -1.2%. The “% Inhibition” value ([34]; 1µM) was -7%, the “% Inhibition” value ([35]; 0.1µM) was -1.9% and the “% Inhibition” value ([35]; 1µM) was -6.2%.

— article PMC5578959, “Selective LRRK2 kinase inhibition reduces phosphorylation of endogenous Rab10 and Rab12 in human peripheral mononuclear blood cells” (Scientific Reports, 2017)
